Results: PubChem BioAssay AID226 (DTP/NCI, 2004)
Several values for one entry are separate records, joined by “and”; a condition that tells them apart may be missing. Equal values may be shown once. Toxic doses and inconclusive results are not listed. The calls were made as follows: active = survival T/C of 150% or more; inactive = T/C below 125% in these data.

System: B6C3F1 mice, intracerebral ependymoblastoma, median survival T/C
Test: NCI In Vivo Anticancer Drug Screen. Data for tumor model Ependymoblastoma (intracerebral) in B6C3F1 mice
Settings: endpoint: median survival time, higher = longer survival
Description: The antitumor activity of compounds was measured in mice bearing transplantable tumors. Survival or tumor size were measured and the results are expressed as the measurement made in the treated group (T) divided by the measurement made in the vehicle treated control group (C). The tumor model used in this assay is Ependymoblastoma (intracerebral) in B6C3F1 mice

[1] = dose: 25.0 mg/kg/injection, schedule: Q01DX005 (ip), vehicle: saline
[2] = dose: 100.0 mg/kg/injection, schedule: Q01DX005 (ip), vehicle: saline
[3] = dose: 200.0 mg/kg/injection, schedule: Q01DX005 (ip), vehicle: saline
[4] = dose: 400.0 mg/kg/injection, schedule: Q01DX005 (ip), vehicle: saline
[5] = dose: 8.0 mg/kg/injection, schedule: Q01DX005 (ip), vehicle: saline with Tween-80
[6] = dose: 16.0 mg/kg/injection, schedule: Q01DX005 (ip), vehicle: saline with Tween-80
[7] = dose: 32.0 mg/kg/injection, schedule: Q01DX005 (ip), vehicle: saline with Tween-80
[8] = dose: 64.0 mg/kg/injection, schedule: Q01DX005 (ip), vehicle: saline with Tween-80

Measured: T/C

CN(N=O)C(=O)N[C@@H](C=O)[C@@H](O)[C@H](O)[C@H](O)CO
inactive: dose: 6.25 mg/kg/injection, schedule: Q01DX009 (ip), vehicle: citric acid 96 % of control | dose: 12.5 mg/kg/injection, schedule: Q01DX005 (ip), vehicle: saline 103 % of control | dose: 12.5 mg/kg/injection, schedule: Q01DX009 (ip), vehicle: citric acid 108 % of control | [1] 122 % of control | dose: 25.0 mg/kg/injection, schedule: Q01DX009 (ip), vehicle: citric acid 117 % of control | dose: 64.0 mg/kg/injection, schedule: Q01DX001 (ip), vehicle: other 108 % of control | dose: 75.0 mg/kg/injection, schedule: Q01DX001 (ip), vehicle: saline 121 % of control | [2] 113 % of control | dose: 128.0 mg/kg/injection, schedule: Q01DX001 (ip), vehicle: other 105 % of control | [3] 113 % of control | dose: 256.0 mg/kg/injection, schedule: Q01DX001 (ip), vehicle: other 101 % of control | [4] 103 % of control | dose: 512.0 mg/kg/injection, schedule: Q01DX001 (ip), vehicle: other 108 % of control

Nc1nc(=S)c2ncn(C3CC(O)C(CO)O3)c2[nH]1 (centres undefined)
inactive: dose: 4.0 mg/kg/injection, schedule: Q01DX005 (ip), vehicle: saline with Tween-80 93 % of control and 96 % of control | [5] 103 % of control | [6] 92 % of control | [7] 91 % of control and 102 % of control | [8] 100 % of control and 90 % of control

Nc1ncnc2c1ncn2C1OC(COP(=O)(O)O)C(O)C1O (centres undefined)
inactive: [1] 100 % of control | dose: 50.0 mg/kg/injection, schedule: Q01DX005 (ip), vehicle: saline 106 % of control and 107 % of control | [2] 105 % of control and 112 % of control | [3] 107 % of control and 109 % of control | [4] 106 % of control and 112 % of control | dose: 800.0 mg/kg/injection, schedule: Q01DX005 (ip), vehicle: saline 117 % of control

O=[N+]([O-])O.[Ga]
inactive: dose: 32.0 mg/kg/injection, schedule: Q01DX005 (ip), vehicle: saline 107 % of control | dose: 64.0 mg/kg/injection, schedule: Q01DX005 (ip), vehicle: saline 100 % of control | dose: 128.0 mg/kg/injection, schedule: Q01DX005 (ip), vehicle: saline 105 % of control

C[C@]12C=CC(=O)C=C1CC[C@@H]1[C@@H]2CC[C@]2(C)OC(=O)CC[C@@H]12
inactive: dose: 8.0 mg/kg/injection, schedule: Q01DX005 (ip), vehicle: Klucel (hydroxypropylcellulose) (HPC) 98 % of control and 100 % of control | [5] 100 % of control and 113 % of control | dose: 16.0 mg/kg/injection, schedule: Q01DX005 (ip), vehicle: Klucel (hydroxypropylcellulose) (HPC) 101 % of control and 106 % of control | [6] 97 % of control and 110 % of control | dose: 32.0 mg/kg/injection, schedule: Q01DX005 (ip), vehicle: Klucel (hydroxypropylcellulose) (HPC) 94 % of control and 95 % of control | [7] 97 % of control and 105 % of control | dose: 64.0 mg/kg/injection, schedule: Q01DX005 (ip), vehicle: Klucel (hydroxypropylcellulose) (HPC) 98 % of control and 101 % of control | [8] 97 % of control and 105 % of control | dose: 128.0 mg/kg/injection, schedule: Q01DX005 (ip), vehicle: Klucel (hydroxypropylcellulose) (HPC) 96 % of control and 86 % of control | dose: 128.0 mg/kg/injection, schedule: Q01DX005 (ip), vehicle: saline with Tween-80 96 % of control and 108 % of control | dose: 256.0 mg/kg/injection, schedule: Q01DX005 (ip), vehicle: Klucel (hydroxypropylcellulose) (HPC) 90 % of control | dose: 256.0 mg/kg/injection, schedule: Q01DX005 (ip), vehicle: saline with Tween-80 105 % of control
